Test results from patent publication US10533010B2, “Substituted indole Mcl-1 inhibitors” (Vanderbilt University, priority 2014, dated 2020).

Legend:
[1] = target: recombinant Mcl-1 (residues 172-327) (Homo sapiens (Human), UniProt Q07820); assay: Fluorescence polarization anisotropy competition assay (FITC-Bak or FITC-Bim BH3 peptide) with Mcl-1; type: binding; settings: Table 2; Ki bins given in nM; FITC-Bak or FITC-Bim peptide competition; Ki converted from IC50; read-out: Ki for Inhibition of Mcl-1
Chain of recombinant Mcl-1 (residues 172-327) (Q07820 172-327): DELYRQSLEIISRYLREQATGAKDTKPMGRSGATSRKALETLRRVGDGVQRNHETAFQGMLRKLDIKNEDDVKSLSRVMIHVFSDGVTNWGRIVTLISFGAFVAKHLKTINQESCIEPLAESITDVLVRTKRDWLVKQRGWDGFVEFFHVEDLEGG

OPM-2 = assay: Cellular viability (Cell TiterGlo) OPM-2; type: cell-based; settings: Homo sapiens; OPM-2 cells, 72 hours, 10% FBS; read-out: IC50 on cellular proliferation, OPM-2
Description: (§1) Human cancer cell lines ALMC-1, ALMC-2, K562, H929, and OPM-2 were cultured in media supplemented with 10% fetal bovine serum (FBS). To evaluate compound effect on cellular proliferation, cells were plated at 1,000 cells/well in 96-well tissue culture plates in a total volume of 90 μL medium supplemented with 10% FBS (Sigma, Saint Louis, Mo.). 24 hours later, 10 μL of compound (in a 2-fold serial dilution) is added to the cells for a top concentration of 50 μM and a final DMSO concentration <1%. After 72 hours, 50 μL of Cell TiterGlo (Promega, Madison, Wis., USA) reagent is added to each well and plates are incubated at room temperature, in the dark, for 30 minutes. Luminescence is measured on a BioTek Cytation 3. Luminescence values are imported into a template in XLFit (Guildford, Surrey, UK) that uses a four-parameter fit to generate an IC50 value for each compound dilution series on the plate.

ALMC-1 = assay: Cellular viability (Cell TiterGlo) ALMC-1; type: cell-based; settings: Homo sapiens, ALMC1; ALMC-1 cells, 72 hours, 10% FBS; read-out: IC50 on cellular proliferation, ALMC-1
Description: as §1

H929 [2] = assay: Cellular viability (Cell TiterGlo) H929; type: cell-based; settings: Homo sapiens, NCI-H929; H929 cells, 72 hours, 10% FBS; read-out: IC50 on cellular proliferation, H929
Description: as §1

H929 [3] = assay: Apoptosis assay (Caspase 3/7 Glo) H929; type: cell-based; settings: Homo sapiens, NCI-H929; H929 cells, 3 hours, 5% FBS; read-out: EC50 on cellular caspase 3/7 activation, H929
Description: Induction of apoptosis was measured by quantifying caspase 3/7 activity using the commercially available Caspase-Glo reagent (Promega, Madison, Wis., USA). This assay relies on the cleavage of a proluminescent substrate by activated caspases, which is then detected on the BioTek Cytation 3. 5000 cells in 90 μL of media (+5% FBS) are plated in each well of a white 96-well plate and incubated overnight at 37° C. in a tissue culture incubator. The following day, compound is diluted in a 10-pt, 2-fold serial dilution scheme for a final top concentration of 50 μM. 10 μL of compound is added directly to the cell assay plate for a final volume of 100 μL. Columns 11 and 12 are reserved for treatment with DMSO to serve as control wells. Plates are incubated for 3 hours. 100 μL of Caspase-Glo reagent is added to each well and plates are incubated at room temperature, in the dark, for 30 minutes. Luminescence is measured on the Cytation 3. Luminescence values are imported into a template in XLFit (Guildford, Surrey, UK) that uses a four-parameter fit to generate an IC50 value for each compound dilution series on the plate.

K562 = assay: Cellular viability (Cell TiterGlo) K562; type: cell-based; settings: Homo sapiens; K562 cells, 72 hours, 10% FBS; read-out: IC50 on cellular proliferation, K562
Description: as §1

ALMC-2 = assay: Cellular viability (Cell TiterGlo) ALMC-2; type: cell-based; settings: Homo sapiens, ALMC2; ALMC-2 cells, 72 hours, 10% FBS; read-out: IC50 on cellular proliferation, ALMC-2
Description: as §1

| Structure (SMILES) | Ki [1] | IC50 (OPM-2) | IC50 (ALMC-1) | IC50 (H929 [2]) | EC50 (H929 [3]) | IC50 (K562) | IC50 (ALMC-2) |
| --- | --- | --- | --- | --- | --- | --- | --- |
| Cc1cc(OCCCc2c3n(c4c(-c5c(C)nn(C)c5C)c(Cl)ccc24)CCN(c2cccc(C(=O)O)c2)C3=O)cc(C)c1Cl [I-178, 3-(7-chloro-10-(3-(4-chloro-3,5-dimethylphenoxy)propyl)-1-oxo-6-(1,3,5-trimethyl-1H-pyrazol-4-yl)-3,4-dihydropyrazino[1,2-a]indol-2(1H)-yl)benzoic acid] | < 50 nM | 11.7 µM | 6.1 µM | 8.7 µM | 3.1 µM | 11.8 µM | 8.7 µM |
| Cc1cc(OCCCc2c(C(=O)NC[C@H]3CC[C@H](C(=O)O)CC3)[nH]c3c(-c4c(C)nn(C)c4C)cccc23)cc(C)c1Cl [I-320, (1R,4R)-4-((3-(3-(4-chloro-3,5-dimethylphenoxy)propyl)-7-(1,3,5-trimethyl-1H-pyrazol-4-yl)-1H-indole-2-carboxamido)methyl)cyclohexane-1-carboxylic acid] | < 50 nM | – | – | – | 2.3 µM | – | – |
